Data reported in article PMC8129133, “Polymer-free corticosteroid dimer implants for controlled and sustained drug delivery” (Nature Communications, 2021).
Where “and” joins values, the source holds several entries; their conditions need not be identical. Equal entries are not always repeated.

Experiment: In vitro release
Type: physicochemical
Conditions: for Cumulative Dex (%): Fig 4b pellet 1x1 mm; for 23G x 6 mm - Cumulative Dex Release, % / 30G x 6 mm - Cumulative Dex Release, % / 23G x 6 mm - Cumulative Dex Release / 30G x 6 mm - Cumulative Dex Release: Fig 4e; for 23G x 6 mm - Cumulative Dex Release, % / 30G x 6 mm - Cumulative Dex Release, %: AVG; for 23G x 6 mm - Cumulative Dex Release / 30G x 6 mm - Cumulative Dex Release: single samples and AVG
Procedure, shortened: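 Melt-pressed crystalline drug dimer pellets (1 mm × 1 mm), alone or blended with a second drug, were incubated at 37 °C with 115 rpm shaking in PBS pH 7.4, 100% FBS, 1% FBS/PBS or 3.6% BSA/PBS. Medium was fully replaced at 24 h, then every 3–4 days; drug was quantified by HPLC after acetonitrile protein precipitation.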

C[C@@H]1C[C@H]2[C@@H]3CCC4=CC(=O)C=C[C@]4(C)[C@@]3(F)[C@@H](O)C[C@]2(C)[C@@]1(O)C(=O)COC(=O)OCCOCCOCCOC(=O)OCC(=O)[C@@]1(O)[C@H](C)C[C@H]2[C@@H]3CCC4=CC(=O)C=C[C@]4(C)[C@@]3(F)[C@@H](O)C[C@@]21C [Dex-TEG-Dex]
Cumulative Dex (%) (1% FBS, Day 1): 0.0326% and 0.0366% and 0.0447% | Cumulative Dex (%) (1% FBS, Day 3): 0.11% and 0.12% and 0.13% | Cumulative Dex (%) (1% FBS, Day 7): 0.35% and 0.44% and 0.38% | Cumulative Dex (%) (1% FBS, Day 10): 0.52% and 0.59% and 0.51% | Cumulative Dex (%) (1% FBS, Day 14): 0.81% and 0.96% and 0.85% | Cumulative Dex (%) (1% FBS, Day 17): 0.94% and 1.07% and 1.04% | Cumulative Dex (%) (1% FBS, Day 21): 1.22% and 1.44% and 1.42% | Cumulative Dex (%) (1% FBS, Day 24): 1.37% and 1.56% and 1.61% | Cumulative Dex (%) (1% FBS, Day 28): 1.58% and 1.84% and 1.93% | Cumulative Dex (%) (1% FBS, Day 31): 1.78% and 2.05% and 2.12% | Cumulative Dex (%) (1% FBS, Day 35): 1.95% and 2.46% and 2.48% | Cumulative Dex (%) (100% FBS, Day 1): 1.59% and 1.88% and 1.25% | Cumulative Dex (%) (100% FBS, Day 3): 6.12% and 9.16% and 4.64% | Cumulative Dex (%) (100% FBS, Day 7): 11.07% and 13.41% and 9.59% | Cumulative Dex (%) (100% FBS, Day 10): 15.60% and 21.36% and 19.29% | Cumulative Dex (%) (100% FBS, Day 14): 21.12% and 26.30% and 23.66% | Cumulative Dex (%) (100% FBS, Day 17): 25.65% and 33.52% and 29.96% | Cumulative Dex (%) (100% FBS, Day 21): 29.80% and 39.06% and 33.88% | Cumulative Dex (%) (100% FBS, Day 24): 34.99% and 43.22% and 37.26% | Cumulative Dex (%) (100% FBS, Day 28): 41.40% and 49.76% and 42.62% | Cumulative Dex (%) (100% FBS, Day 31): 49.48% and 56.79% and 48.41% | Cumulative Dex (%) (100% FBS, Day 35): 52.66% and 62.41% and 52.08% | Cumulative Dex (%) (PBS, Day 1): 0.0268% and 0.0111% and 0.0155% | Cumulative Dex (%) (PBS, Day 7): 0.06% and 0.0341% and 0.04% | Cumulative Dex (%) (PBS, Day 10): 0.075% and 0.04% and 0.05% | Cumulative Dex (%) (PBS, Day 14): 0.09% and 0.05% and 0.06% | Cumulative Dex (%) (PBS, Day 17): 0.10% and 0.0566% and 0.07% | Cumulative Dex (%) (PBS, Day 21): 0.12% and 0.07% and 0.09% | Cumulative Dex (%) (PBS, Day 24): 0.13% and 0.08% and 0.10% | Cumulative Dex (%) (PBS, Day 28): 0.15% and 0.09% and 0.11% | Cumulative Dex (%) (PBS, Day 31): 0.16% and 0.11% and 0.12% | Cumulative Dex (%) (PBS, Day 35): 0.17% and 0.12% and 0.13% | 23G x 6 mm - Cumulative Dex Release, % (Day 3): 1.00% | 30G x 6 mm - Cumulative Dex Release, % (Day 3): 4.68% | 23G x 6 mm - Cumulative Dex Release (Day 3): 3729.09 ng and 2929.83 ng and 3290.92 ng and 3423.46 ng and 3390.39 ng and 4152.03 ng | 30G x 6 mm - Cumulative Dex Release (Day 3): 3437.65 ng and 3035.80 ng and 2955.67 ng and 2307.19 ng and 3016.47 ng | 23G x 6 mm - Cumulative Dex Release (Day 3, mean): 3485.95 ng | 30G x 6 mm - Cumulative Dex Release (Day 3, mean): 2950.56 ng | 23G x 6 mm - Cumulative Dex Release, % (Day 8): 1.83% | 30G x 6 mm - Cumulative Dex Release, % (Day 8): 10.16% | 23G x 6 mm - Cumulative Dex Release (Day 8): 7366.47 ng and 5713.70 ng and 5752.02 ng and 6286.74 ng and 6353.56 ng and 6670.93 ng | 30G x 6 mm - Cumulative Dex Release (Day 8): 7053.30 ng and 6157.33 ng and 6454.99 ng and 5803.26 ng and 6543.46 ng | 23G x 6 mm - Cumulative Dex Release (Day 8, mean): 6357.24 ng | 30G x 6 mm - Cumulative Dex Release (Day 8, mean): 6402.47 ng | 23G x 6 mm - Cumulative Dex Release, % (Day 10): 2.30% | 30G x 6 mm - Cumulative Dex Release, % (Day 10): 11.65% | 23G x 6 mm - Cumulative Dex Release (Day 10): 9158.12 ng and 7456.22 ng and 6722.99 ng and 8377.04 ng and 7947.05 ng and 8287.22 ng | 30G x 6 mm - Cumulative Dex Release (Day 10): 7909.95 ng and 7094.85 ng and 7391.21 ng and 6693.85 ng and 7620.80 ng | 23G x 6 mm - Cumulative Dex Release (Day 10, mean): 7991.44 ng | 30G x 6 mm - Cumulative Dex Release (Day 10, mean): 7342.13 ng | 23G x 6 mm - Cumulative Dex Release, % (Day 14): 3.12% | 30G x 6 mm - Cumulative Dex Release, % (Day 14): 14.82% | 23G x 6 mm - Cumulative Dex Release (Day 14): 11851.57 ng and 10258.34 ng and 8632.68 ng and 12053.80 ng and 11294.23 ng and 11036.15 ng | 30G x 6 mm - Cumulative Dex Release (Day 14): 9732.58 ng and 9343.08 ng and 9295.87 ng and 8576.11 ng and 9731.17 ng | 23G x 6 mm - Cumulative Dex Release (Day 14, mean): 10854.46 ng | 30G x 6 mm - Cumulative Dex Release (Day 14, mean): 9335.76 ng | 23G x 6 mm - Cumulative Dex Release, % (Day 17): 3.78% | 30G x 6 mm - Cumulative Dex Release, % (Day 17): 17.41% | 23G x 6 mm - Cumulative Dex Release (Day 17): 14384.84 ng and 12536.91 ng and 10299.95 ng and 14655.10 ng and 13823.20 ng and 13226.26 ng | 30G x 6 mm - Cumulative Dex Release (Day 17): 11350.14 ng and 11189.72 ng and 10651.54 ng and 10149.26 ng and 11503.70 ng | 23G x 6 mm - Cumulative Dex Release (Day 17, mean): 13154.38 ng | 30G x 6 mm - Cumulative Dex Release (Day 17, mean): 10968.87 ng | 23G x 6 mm - Cumulative Dex Release, % (Day 21): 4.61% | 30G x 6 mm - Cumulative Dex Release, % (Day 21): 21.03% | 23G x 6 mm - Cumulative Dex Release (Day 21): 17889.27 ng and 15640.68 ng and 12427.10 ng and 17536.82 ng and 17079.10 ng and 15733.26 ng | 30G x 6 mm - Cumulative Dex Release (Day 21): 13690.06 ng and 13583.23 ng and 12649.08 ng and 12021.08 ng and 14305.00 ng | 23G x 6 mm - Cumulative Dex Release (Day 21, mean): 16051.04 ng | 30G x 6 mm - Cumulative Dex Release (Day 21, mean): 13249.69 ng | 23G x 6 mm - Cumulative Dex Release, % (Day 24): 5.14% | 30G x 6 mm - Cumulative Dex Release, % (Day 24): 23.23% | 23G x 6 mm - Cumulative Dex Release (Day 24): 20230.97 ng and 17190.29 ng and 13784.68 ng and 19329.36 ng and 19335.19 ng and 17491.78 ng | 30G x 6 mm - Cumulative Dex Release (Day 24): 15132.41 ng and 14970.59 ng and 13925.27 ng and 13373.61 ng and 15759.23 ng | 23G x 6 mm - Cumulative Dex Release (Day 24, mean): 17893.71 ng
